Experimental data published in patent US10357493B2, “Metalloenzyme inhibitor compounds” (Selenity Therapeutics (Bermuda), Ltd., priority 2017, dated 2019).

Assays:
HDAC1 = HDAC1 (Homo sapiens (Human), UniProt Q13547); assay: HDAC1 enzymatic assay; assay type: biochemical; conditions: read-out: Human HDAC1 IC50
Method in brief: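 HDAC1 activity was measured in duplicate 50 μl reactions containing 0.5 ng HDAC1, 10 uM of HDAC substrate, and test compound in buffer (50 mM Tris-HCl, pH 7.4, 137 mM NaCl, 2.7 mM KCl, 0.05% Tween 20, 5 μg BSA) with 1% DMSO, incubated 17 hours at room temperature. HDAC Developer was then added for 20 minutes and fluorescence read at 360/460 nm.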

HDAC6 = HDAC6 (Homo sapiens (Human), UniProt Q9UBN7); assay: HDAC6 enzymatic assay; assay type: biochemical; conditions: read-out: Human HDAC6 IC50
HDAC6, sequence (Q9UBN7 whole entry): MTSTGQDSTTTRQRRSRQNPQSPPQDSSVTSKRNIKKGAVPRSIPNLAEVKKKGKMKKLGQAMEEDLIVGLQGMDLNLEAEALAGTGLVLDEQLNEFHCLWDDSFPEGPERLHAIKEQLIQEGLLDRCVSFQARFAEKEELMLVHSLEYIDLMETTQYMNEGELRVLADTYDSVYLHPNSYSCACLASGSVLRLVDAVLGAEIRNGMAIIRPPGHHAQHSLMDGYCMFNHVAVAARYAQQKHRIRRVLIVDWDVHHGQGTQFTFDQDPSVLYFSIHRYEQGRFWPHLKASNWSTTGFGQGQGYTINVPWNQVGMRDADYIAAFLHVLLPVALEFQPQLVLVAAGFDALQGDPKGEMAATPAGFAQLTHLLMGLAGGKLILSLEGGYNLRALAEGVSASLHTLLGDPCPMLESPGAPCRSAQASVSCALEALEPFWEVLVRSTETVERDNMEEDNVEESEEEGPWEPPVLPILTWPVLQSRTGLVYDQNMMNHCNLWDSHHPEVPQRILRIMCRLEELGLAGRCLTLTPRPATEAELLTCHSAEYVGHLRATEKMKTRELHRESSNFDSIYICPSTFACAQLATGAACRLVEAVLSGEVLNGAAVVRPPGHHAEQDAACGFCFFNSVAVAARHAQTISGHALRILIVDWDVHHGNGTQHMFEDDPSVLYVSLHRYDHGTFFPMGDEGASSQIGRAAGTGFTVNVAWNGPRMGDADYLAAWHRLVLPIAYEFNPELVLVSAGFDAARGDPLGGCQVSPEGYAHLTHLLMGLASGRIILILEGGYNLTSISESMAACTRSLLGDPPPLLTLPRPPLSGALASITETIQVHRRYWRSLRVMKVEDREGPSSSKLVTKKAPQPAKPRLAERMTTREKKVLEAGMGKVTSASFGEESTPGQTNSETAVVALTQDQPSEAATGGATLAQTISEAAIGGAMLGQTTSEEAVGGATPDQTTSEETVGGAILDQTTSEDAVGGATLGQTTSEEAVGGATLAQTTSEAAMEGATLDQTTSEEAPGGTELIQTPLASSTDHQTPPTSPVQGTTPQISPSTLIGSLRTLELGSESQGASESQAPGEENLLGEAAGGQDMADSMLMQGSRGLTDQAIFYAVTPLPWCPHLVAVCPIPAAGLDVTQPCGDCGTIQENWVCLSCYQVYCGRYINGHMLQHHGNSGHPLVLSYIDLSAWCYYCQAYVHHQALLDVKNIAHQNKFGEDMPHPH
Method in brief: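 Human HDAC6 activity was measured in duplicate 50 μl reactions holding 2 ng HDAC6, 10 uM of HDAC substrate and test compound in HDAC assay buffer (50 mM Tris-HCl, pH 7.4, 137 mM NaCl, 2.7 mM KCl, 0.05% Tween 20, 5 μg BSA) with 1% DMSO, for 17 hours at room temperature. HDAC Developer was added for 20 minutes before reading fluorescence at 360/460 nm.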

HDAC1, sequence (Q13547 whole entry): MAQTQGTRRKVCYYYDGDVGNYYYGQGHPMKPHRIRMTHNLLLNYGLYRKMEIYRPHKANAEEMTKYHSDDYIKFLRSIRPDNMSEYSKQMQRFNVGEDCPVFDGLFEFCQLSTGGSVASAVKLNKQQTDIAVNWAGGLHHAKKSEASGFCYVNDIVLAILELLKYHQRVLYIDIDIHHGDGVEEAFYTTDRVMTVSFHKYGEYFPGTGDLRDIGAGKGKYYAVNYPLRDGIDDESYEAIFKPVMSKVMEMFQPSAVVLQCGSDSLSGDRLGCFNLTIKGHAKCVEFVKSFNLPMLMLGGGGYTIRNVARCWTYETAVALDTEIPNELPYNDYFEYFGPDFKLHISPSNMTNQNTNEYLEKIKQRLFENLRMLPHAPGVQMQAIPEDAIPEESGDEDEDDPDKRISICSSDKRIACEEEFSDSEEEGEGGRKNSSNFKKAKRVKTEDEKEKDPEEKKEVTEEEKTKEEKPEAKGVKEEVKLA

Compound | IC50 (HDAC1) [nM] | IC50 (HDAC6) [nM]
CN(CC(Nc1ncc(-c2nnc(C(F)F)o2)cn1)c1ccc(OC(F)(F)F)cc1)S(C)(=O)=O (stereo not drawn) [153(+), N-(2-((5-(5-(difluoromethyl)-1,3,4-oxadiazol-2-yl)pyrimidin-2-yl)amino)-2-(4-(trifluoromethoxy)phenyl)ethyl)-N-methylmethanesulfonamide] | > 30000 | 20
CS(=O)(=O)N(CC(Nc1ncc(-c2nnc(C(F)F)o2)cn1)c1ccc(OC(F)(F)F)cc1)CC(F)(F)F (stereo not drawn) [154(+), N-(2-((5-(5-(difluoromethyl)-1,3,4-oxadiazol-2-yl)pyrimidin-2-yl)amino)-2-(4-(trifluoromethoxy)phenyl)ethyl)-N-(2,2,2-trifluoroethyl)methanesulfonamide] | > 30000 | 260
CC(Nc1ncc(-c2nnc(C(F)F)o2)cn1)c1ccccc1 (centres unmarked) [Example 6, 5-(5-(difluoromethyl)-1,3,4-oxadiazol-2-yl)-N-(1-phenylethyl)pyrimidin-2-amine] | > 30000 | 57
FC(F)c1nnc(-c2cnc(NC(c3ccccc3)c3ccccc3)nc2)o1 [Example 7, N-benzhydryl-5-(5-(difluoromethyl)-1,3,4-oxadiazol-2-yl)pyrimidin-2-amine] | > 30000 | 1700
CN(c1ncc(-c2nnc(C(F)F)o2)cn1)C1(c2ccc(F)cc2)CC1 [Example 8, 5-(5-(difluoromethyl)-1,3,4-oxadiazol-2-yl)-N-(1-(4-fluorophenyl)cyclopropyl)-N-methylpyrimidin-2-amine] | > 30000 | 9000
Fc1ccc(C2(Nc3ncc(-c4nnc(C(F)F)o4)cn3)CC2)c(F)c1 [Example 10, 5-(5-(difluoromethyl)-1,3,4-oxadiazol-2-yl)-N-(1-(2,4-difluorophenyl)cyclopropyl)pyrimidin-2-amine] | > 100000 | 9
FC(F)c1nnc(-c2cnc(OC3(c4ccccc4)CC3)nc2)o1 [Example 12, 2-(difluoromethyl)-5-(2-(1-phenylcyclopropoxy)pyrimidin-5-yl)-1,3,4-oxadiazole] | > 30000 | 210
Fc1ccc(-c2ccccc2C2(Nc3ncc(-c4nnc(C(F)F)o4)cn3)CC2)cc1 [Example 14, 5-(5-(difluoromethyl)-1,3,4-oxadiazol-2-yl)-N-(1-(4′-fluoro-[1,1′-biphenyl]-2-yl)cyclopropyl)pyrimidin-2-amine] | > 30000 | > 30000
Fc1ccc(C(Nc2ncc(-c3nnc(C(F)F)o3)cn2)C(F)(F)F)cc1 (centres unmarked) [Example 15, 5-(5-(difluoromethyl)-1,3,4-oxadiazol-2-yl)-N-(2,2,2-trifluoro-1-(4-fluorophenyl)ethyl)pyrimidin-2-amine] | > 30000 | 74
Fc1ccc(-c2ccc(C3(Nc4ncc(-c5nnc(C(F)F)o5)cn4)CC3)cc2)cc1 [Example 16, 5-(5-(difluoromethyl)-1,3,4-oxadiazol-2-yl)-N-(1-(4′-fluoro-[1,1′-biphenyl]-4-yl)cyclopropyl) pyrimidin-2-amine] | > 30000 | 95
Fc1ccc(C2(Nc3ncc(-c4nnc(C(F)F)o4)cn3)CCN(c3ccccc3)CC2)cc1 [Example 17, 5-(5-(difluoromethyl)-1,3,4-oxadiazol-2-yl)-N-(4-(4-fluorophenyl)-1-phenylpiperidin-4-yl)pyrimidin-2-amine] | > 30000 | 160
Fc1ccc(-c2cccc(C3(Nc4ncc(-c5nnc(C(F)F)o5)cn4)CC3)c2)cc1 [Example 18, 5-(5-(difluoromethyl)-1,3,4-oxadiazol-2-yl)-N-(1-(4′-fluoro-[1,1′-biphenyl]-3-yl)cyclopropyl)pyrimidin-2-amine] | > 30000 | 58

Continued, values first:

IC50 (HDAC1) [nM] | IC50 (HDAC6) [nM] | Compound
> 30000 | 41 | CN(CC(Nc1ncc(-c2nnc(C(F)F)o2)cn1)c1ccc(OC(F)F)cc1F)S(C)(=O)=O (stereo not drawn) [145(+), N-(2-(4-(difluoromethoxy)-2-fluorophenyl)-2-((5-(5-(difluoromethyl)-1,3,4-oxadiazol-2-yl)pyrimidin-2-yl)amino)ethyl)-N-methylmethanesulfonamide]
> 30000 | 140 | CS(=O)(=O)N(CC(Nc1ncc(-c2nnc(C(F)F)o2)cn1)c1ccc(OC(F)F)cc1F)CC(F)(F)F (stereo not drawn) [146(+), N-(2-(4-(difluoromethoxy)-2-fluorophenyl)-2-((5-(5-(difluoromethyl)-1,3,4-oxadiazol-2-yl)pyrimidin-2-yl)amino)ethyl)-N-(2,2,2-trifluoroethyl)methanesulfonamide]
> 30000 | 18 | CCS(=O)(=O)NCC(Nc1ncc(-c2nnc(C(F)F)o2)cn1)c1ccc(OC(F)F)cc1F (stereo not drawn) [147(+), N-(2-(4-(difluoromethoxy)-2-fluorophenyl)-2-((5-(5-(difluoromethyl)-1,3,4-oxadiazol-2-yl)pyrimidin-2-yl)amino)ethyl)ethanesulfonamide]
> 30000 | 19 | CCS(=O)(=O)N(C)CC(Nc1ncc(-c2nnc(C(F)F)o2)cn1)c1ccc(OC(F)F)cc1F (stereo not drawn) [148(+), N-(2-(4-(difluoromethoxy)-2-fluorophenyl)-2-((5-(5-(difluoromethyl)-1,3,4-oxadiazol-2-yl)pyrimidin-2-yl)amino)ethyl)-N-methylethanesulfonamide]
> 30000 | 200 | CCS(=O)(=O)N(CC(Nc1ncc(-c2nnc(C(F)F)o2)cn1)c1ccc(OC(F)F)cc1F)CC(F)(F)F (stereo not drawn) [149(+), N-(2-(4-(difluoromethoxy)-2-fluorophenyl)-2-((5-(5-(difluoromethyl)-1,3,4-oxadiazol-2-yl)pyrimidin-2-yl)amino)ethyl)-N-(2,2,2-trifluoroethyl)ethanesulfonamide]
> 30000 | 85 | CN(CC(Nc1ncc(-c2nnc(C(F)F)o2)cn1)c1ccc(OC(F)F)cc1F)S(=O)(=O)C1CC1 (stereo not drawn) [151(+), N-(2-(4-(difluoromethoxy)-2-fluorophenyl)-2-((5-(5-(difluoromethyl)-1,3,4-oxadiazol-2-yl)pyrimidin-2-yl)amino)ethyl)-N-methylcyclopropanesulfonamide]
> 30000 | 280 | O=S(=O)(C1CC1)N(CC(Nc1ncc(-c2nnc(C(F)F)o2)cn1)c1ccc(OC(F)F)cc1F)CC(F)(F)F (stereo not drawn) [152(+), N-(2-(4-(difluoromethoxy)-2-fluorophenyl)-2-((5-(5-(difluoromethyl)-1,3,4-oxadiazol-2-yl)pyrimidin-2-yl)amino)ethyl)-N-(2,2,2-trifluoroethyl)cyclopropanesulfonamide]
> 30000 | 50 | CCS(=O)(=O)NCC(Nc1ncc(-c2nnc(C(F)F)o2)cn1)c1ccc(OC(F)(F)F)cc1 (stereo not drawn) [155(+), N-(2-((5-(5-(difluoromethyl)-1,3,4-oxadiazol-2-yl)pyrimidin-2-yl)amino)-2-(4-(trifluoromethoxy)phenyl)ethyl)ethanesulfonamide]
> 30000 | 76 | CCS(=O)(=O)N(C)CC(Nc1ncc(-c2nnc(C(F)F)o2)cn1)c1ccc(OC(F)(F)F)cc1 (stereo not drawn) [156(+), N-(2-((5-(5-(difluoromethyl)-1,3,4-oxadiazol-2-yl)pyrimidin-2-yl)amino)-2-(4-(trifluoromethoxy)phenyl)ethyl)-N-methylethanesulfonamide]
> 30000 | 440 | CCS(=O)(=O)N(CC(Nc1ncc(-c2nnc(C(F)F)o2)cn1)c1ccc(OC(F)(F)F)cc1)CC(F)(F)F (stereo not drawn) [157(+), N-(2-((5-(5-(difluoromethyl)-1,3,4-oxadiazol-2-yl)pyrimidin-2-yl)amino)-2-(4-(trifluoromethoxy)phenyl)ethyl)-N-(2,2,2-trifluoroethyl)ethanesulfonamide]
> 30000 | 51 | O=S(=O)(NCC(Nc1ncc(-c2nnc(C(F)F)o2)cn1)c1ccc(OC(F)(F)F)cc1)C1CC1 (stereo not drawn) [158(+), N-(2-((5-(5-(difluoromethyl)-1,3,4-oxadiazol-2-yl)pyrimidin-2-yl)amino)-2-(4-(trifluoromethoxy)phenyl)ethyl)cyclopropanesulfonamide]
> 30000 | 90 | CN(CC(Nc1ncc(-c2nnc(C(F)F)o2)cn1)c1ccc(OC(F)(F)F)cc1)S(=O)(=O)C1CC1 (stereo not drawn) [159(+), N-(2-((5-(5-(difluoromethyl)-1,3,4-oxadiazol-2-yl)pyrimidin-2-yl)amino)-2-(4-(trifluoromethoxy)phenyl)ethyl)-N-methylcyclopropanesulfonamide]
> 30000 | 580 | O=S(=O)(C1CC1)N(CC(Nc1ncc(-c2nnc(C(F)F)o2)cn1)c1ccc(OC(F)(F)F)cc1)CC(F)(F)F (stereo not drawn) [160(+), N-(2-((5-(5-(difluoromethyl)-1,3,4-oxadiazol-2-yl)pyrimidin-2-yl)amino)-2-(4-(trifluoromethoxy)phenyl)ethyl)-N-(2,2,2-trifluoroethyl)cyclopropanesulfonamide]
> 30000 | 210 | FC(F)(F)c1nnc(-c2cnc(NC3(c4ccccc4)CC3)nc2)o1 [Example 1, N-(1-phenylcyclopropyl)-5-(5-(trifluoromethyl)-1,3,4-oxadiazol-2-yl) pyrimidin-2-amine]
> 30000 | 390 | CC(Nc1ncc(-c2nnc(C(F)(F)F)o2)cn1)c1ccccc1 (centres unmarked) [Example 2, N-(1-phenylethyl)-5-(5-(trifluoromethyl)-1,3,4-oxadiazol-2-yl)pyrimidin-2-amine]
> 30000 | 230 | Cc1cccc(CNc2ncc(-c3nnc(C(F)(F)F)o3)cn2)n1 [Example 3, N-((6-methylpyridin-2-yl)methyl)-5-(5-(trifluoromethyl)-1,3,4-oxadiazol-2-yl) pyrimidin-2-amine]
